Experimental data as given in ChEMBL document CHEMBL3785084, “Rational modification of the lead molecule: Enhancement in the anticancer and dihydrofolate reductase inhibitory activity” (Bioorg Med Chem Lett, 2016).

How the values were obtained:
cells [1] = settings: Homo sapiens, SNB-19, 48 h
Description: Cytotoxicity against human SNB19 cells after 48 hrs by sulforhodamine B assay

[2] = Cytotoxicity against human HCC2998 cells assessed as cell growth at 10^-5 M after 48 hrs by sulforhodamine B assay; format: functional; settings: HCC 2998, 48 h, read-out: Activity
[3] = Cytotoxicity against human MOLT4 cells assessed as cell growth at 10^-5 M after 48 hrs by sulforhodamine B assay; format: functional; settings: MOLT-4, 48 h, read-out: Activity
ACHN = assay: Cytotoxicity against human ACHN cells assessed as cell growth at 10^-5 M after 48 hrs by sulforhodamine B assay; format: functional; settings: read-out: Activity
cells [4] = settings: Homo sapiens, LOX IMVI, 48 h
Description: Cytotoxicity against human LOXIMVI cells after 48 hrs by sulforhodamine B assay

[5] = Cytotoxicity against human IGROV1 cells assessed as cell growth at 10^-5 M after 48 hrs by sulforhodamine B assay; format: functional; settings: IGROV-1, 48 h, read-out: Activity
[6] = Cytotoxicity against human SNB75 cells assessed as cell growth at 10^-5 M after 48 hrs by sulforhodamine B assay; format: functional; settings: SNB-75, 48 h, read-out: Activity
cells [7] = settings: Homo sapiens, OVCAR-4, 48 h
Description: Cytotoxicity against human OVCAR4 cells after 48 hrs by sulforhodamine B assay

cells [8] = settings: Homo sapiens, COLO 205, 48 h
Description: Cytotoxicity against human COLO205 cells after 48 hrs by sulforhodamine B assay

[9] = Cytotoxicity against human BT549 cells assessed as cell growth at 10^-5 M after 48 hrs by sulforhodamine B assay; format: functional; settings: BT-549, 48 h, read-out: Activity
U-251 = assay: cells; settings: Homo sapiens, U-251, 48 h
Description: Cytotoxicity against human U251 cells after 48 hrs by sulforhodamine B assay

[10] = Cytotoxicity against human HCT15 cells assessed as cell growth at 10^-5 M after 48 hrs by sulforhodamine B assay; format: functional; settings: HCT-15, 48 h, read-out: Activity
cells [11] = settings: Homo sapiens, TK-10, 48 h
Description: Cytotoxicity against human TK10 cells after 48 hrs by sulforhodamine B assay

[12] = Cytotoxicity against human OVCAR4 cells assessed as cell growth at 10^-5 M after 48 hrs by sulforhodamine B assay; format: functional; settings: OVCAR-4, 48 h, read-out: Activity
[13] = Cytotoxicity against human TK10 cells assessed as cell growth at 10^-5 M after 48 hrs by sulforhodamine B assay; format: functional; settings: TK-10, 48 h, read-out: Activity
EKVX = assay: cells; settings: Homo sapiens, 48 h
Description: Cytotoxicity against human EKVX cells after 48 hrs by sulforhodamine B assay

CCRF-CEM [14] = assay: cells; settings: Homo sapiens, 48 h
Description: Cytotoxicity against human CCRF-CEM cells after 48 hrs by sulforhodamine B assay

[15] = Cytotoxicity against human SF539 cells assessed as cell growth at 10^-5 M after 48 hrs by sulforhodamine B assay; format: functional; settings: SF-539, 48 h, read-out: Activity
[16] = Cytotoxicity against human UACC62 cells assessed as cell growth at 10^-5 M after 48 hrs by sulforhodamine B assay; format: functional; settings: UACC-62, 48 h, read-out: Activity
SR = assay: Cytotoxicity against human SR cells after 48 hrs by sulforhodamine B assay; format: functional
[17] = Cytotoxicity against human NCI-ADR-RES cells assessed as cell growth at 10^-5 M after 48 hrs by sulforhodamine B assay; format: functional; settings: read-out: Activity
MDA-MB-435 [18] = assay: Cytotoxicity against human MDA-MB-435 cells assessed as cell growth at 10^-5 M after 48 hrs by sulforhodamine B assay; format: functional; settings: MDA-MB-435, 48 h, read-out: Activity
MCF7 = assay: Cytotoxicity against human MCF7 cells assessed as cell growth at 10^-5 M after 48 hrs by sulforhodamine B assay; format: functional; settings: MCF7, 48 h, read-out: Activity
cells [19] = settings: Homo sapiens, OVCAR-8, 48 h
Description: Cytotoxicity against human OVCAR8 cells after 48 hrs by sulforhodamine B assay

A498 = assay: Cytotoxicity against human A498 cells assessed as cell growth at 10^-5 M after 48 hrs by sulforhodamine B assay; format: functional; settings: A498, 48 h, read-out: Activity
cells [20] = settings: Homo sapiens, SW-620, 48 h
Description: Cytotoxicity against human SW620 cells after 48 hrs by sulforhodamine B assay

MDA-MB-435 [21] = assay: cells; settings: Homo sapiens, MDA-MB-435, 48 h
Description: Cytotoxicity against human MDA-MB-435 cells after 48 hrs by sulforhodamine B assay

[22] = Cytotoxicity against human SNB19 cells assessed as cell growth at 10^-5 M after 48 hrs by sulforhodamine B assay; format: functional; settings: SNB-19, 48 h, read-out: Activity
cells [23] = settings: Homo sapiens, SF-295, 48 h
Description: Cytotoxicity against human SF295 cells after 48 hrs by sulforhodamine B assay

[24] = Cytotoxicity against human LOXIMVI cells assessed as cell growth at 10^-5 M after 48 hrs by sulforhodamine B assay; format: functional; settings: LOX IMVI, read-out: Activity
KM12 = assay: cells; settings: Homo sapiens, KM12, 48 h
Description: Cytotoxicity against human KM12 cells after 48 hrs by sulforhodamine B assay

SK-MEL-28 = assay: cells; settings: Homo sapiens, SK-MEL-28, 48 h
Description: Cytotoxicity against human SK-MEL-28 cells after 48 hrs by sulforhodamine B assay

[25] = Cytotoxicity against human DU145 cells assessed as cell growth at 10^-5 M after 48 hrs by sulforhodamine B assay; format: functional; settings: DU-145, 48 h, read-out: Activity
CCRF-CEM [26] = assay: Cytotoxicity against human CCRF-CEM cells assessed as cell growth at 10^-5 M after 48 hrs by sulforhodamine B assay; format: functional; settings: read-out: Activity
SN12C = assay: Cytotoxicity against human SN12C cells assessed as cell growth at 10^-5 M after 48 hrs by sulforhodamine B assay; format: functional; settings: read-out: Activity
cells [27] = settings: Homo sapiens, UO-31, 48 h
Description: Cytotoxicity against human UO31 cells after 48 hrs by sulforhodamine B assay

[28] = Cytotoxicity against human RPMI8226 cells assessed as cell growth at 10^-5 M after 48 hrs by sulforhodamine B assay; format: functional; settings: RPMI-8226, 48 h, read-out: Activity
A549 = assay: Cytotoxicity against human A549 cells assessed as cell growth at 10^-5 M after 48 hrs by sulforhodamine B assay; format: functional; settings: A549, 48 h, read-out: Activity

Structure (SMILES): COc1cc(/C=C2\C(=O)Nc3ccccc32)cc(OC)c1O
- GI50 (cells [1]): 4.5 µM
- TGI (cells [1]): 54.9 µM
- CC50 (cells [1]; read-out: LC50): > 100 µM
- growth at 10 µM [2]: 78.8%
- growth at 10 µM [3]: 0.62%
- growth at 10 µM (ACHN): 77%
- GI50 (cells [4]): 4 µM
- TGI (cells [4]): 16.2 µM
- CC50 (cells [4]; read-out: LC50): 44.6 µM
- growth at 10 µM [5]: 70.2%
- growth at 10 µM [6]: 23.1%
- GI50 (cells [7]): 4.9 µM
- TGI (cells [7]): 31.6 µM
- CC50 (cells [7]; read-out: LC50): > 100 µM
- GI50 (cells [8]): 12.3 µM
- TGI (cells [8]): 26.9 µM
- CC50 (cells [8]; read-out: LC50): 58.8 µM
- growth at 10 µM [9]: 74.8%
- GI50 (U-251): 2.4 µM
- TGI (U-251): 14.1 µM
- CC50 (U-251; read-out: LC50): 42.6 µM
- growth at 10 µM [10]: 61.6%
- GI50 (cells [11]): 7.1 µM
- TGI (cells [11]): 37.1 µM
- CC50 (cells [11]; read-out: LC50): > 100 µM
- growth at 10 µM [12]: 89.1%
- growth at 10 µM [13]: 88.5%
- GI50 (EKVX): 4.9 µM
- TGI (EKVX): 47.8 µM
- CC50 (EKVX; read-out: LC50): > 100 µM
- GI50 (CCRF-CEM [14]): 5.1 µM
- TGI (CCRF-CEM [14]): > 100 µM
- CC50 (CCRF-CEM [14]; read-out: LC50): > 100 µM
- growth at 10 µM [15]: 68.8%
- growth at 10 µM [16]: 72.1%
- GI50 (SR): 1.5 µM
- TGI (SR): 16.9 µM
- CC50 (SR; read-out: LC50 (the source's name)): > 100 µM
- growth at 10 µM [17]: 19.1%
- growth at 10 µM (MDA-MB-435 [18]): -25.3%
- growth at 10 µM (MCF7): 30.8%
- GI50 (cells [19]): 5 µM
- TGI (cells [19]): 29.5 µM
- CC50 (cells [19]; read-out: LC50): > 100 µM
- growth at 10 µM (A498): 52.5%
- GI50 (cells [20]): 3.2 µM
- TGI (cells [20]): 13.2 µM
- CC50 (cells [20]; read-out: LC50): 36.7 µM
- GI50 (MDA-MB-435 [21]): 0.6 µM
- TGI (MDA-MB-435 [21]): 2.2 µM
- CC50 (MDA-MB-435 [21]; read-out: LC50): 6 µM
- growth at 10 µM [22]: 83.7%
- GI50 (cells [23]): 3 µM
- TGI (cells [23]): 30.9 µM
- CC50 (cells [23]; read-out: LC50): > 100 µM
- growth at 10 µM [24]: 36.5%
- GI50 (KM12): 2.5 µM
- TGI (KM12): 11.5 µM
- CC50 (KM12; read-out: LC50): 36.3 µM
- GI50 (SK-MEL-28): 5 µM
- TGI (SK-MEL-28): 22.9 µM
- CC50 (SK-MEL-28; read-out: LC50): 83.2 µM
- growth at 10 µM [25]: 92.5%
- growth at 10 µM (CCRF-CEM [26]): 26.7%
- growth at 10 µM (SN12C): 77%
- GI50 (cells [27]): 2.6 µM
- TGI (cells [27]): 19.9 µM
- CC50 (cells [27]; read-out: LC50): > 100 µM
- growth at 10 µM [28]: 46.6%
- growth at 10 µM (A549): 67.9%
